Measurements taken from PubChem BioAssay (NCI).
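Following 48 hours of exposure in 96-well plates, responses at five concentrations were used to interpolate endpoints linearly. GI50 = concentration required for 50% inhibition of growth. TGI denotes the concentration required for complete inhibition of growth.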

Experiments:
Assay in all cases: growth of human tumour cells (NCI), 48 h
[1] = tested on: SN12C renal
[2] = tested on: MDA-MB-435
[3] = tested on: T-47D breast
[4] = tested on: M14 melanoma
[5] = tested on: HCC-2998 colon
[6] = tested on: SF-539 CNS
[7] = tested on: U251 CNS
[8] = tested on: NCI-H23 lung

For C=CC(=O)Nc1cc(Nc2ncc(C(=O)OC(C)C)c(-c3cn(C)c4ccccc34)n2)c(OC)cc1N(C)CCN(C)C, the GI50 [1] was 3.02 µM, the TGI [1] was 15.4 µM and the GI50 [2] was 3 µM. The TGI [2] was 7.6 µM, the GI50 [3] was 0.396 µM and the TGI [3] was 14 µM. For the same molecule, the GI50 [4] was 1.87 µM, the TGI [4] was 3.74 µM and the GI50 [5] was 2.3 µM. For the same molecule, the TGI [5] was 7.75 µM, the GI50 [6] was 3.1 µM and the TGI [6] was 9.45 µM. For the same molecule, the GI50 [7] was 3.98 µM, the TGI [7] was 12.2 µM and the GI50 [8] was 9.02 µM. The TGI [8] was 25.3 µM.
O=C(Nc1ccc(F)cc1)Nc1ccc(Cl)c([N+](=O)[O-])c1 gave a GI50 [1] of 2.95 µM, a TGI [1] of 11.7 µM and a GI50 [2] of 3.07 µM. It also gave a TGI [2] of 11.6 µM, a GI50 [3] of 2.18 µM and a TGI [3] of 9.67 µM. It also gave a GI50 [4] of 3.14 µM, a TGI [4] of 12.3 µM and a GI50 [5] of 3.71 µM. For the same molecule, the TGI [5] was 14.3 µM, the GI50 [6] was 3.86 µM and the TGI [6] was 14.3 µM. For the same molecule, the GI50 [7] was 3.19 µM, the TGI [7] was 12.5 µM and the GI50 [8] was 2.62 µM. The TGI [8] was 10.7 µM.
With Cc1ccc2c(C)c3c(ccc4ccccc43)c[n+]2c1 the GI50 [1] was 2.18 µM, the TGI [1] was 18.2 µM and the GI50 [2] was 9.55 µM. The TGI [2] was 24.4 µM, the GI50 [3] was 1.73 µM and the TGI [3] was 7.18 µM. For the same molecule, the GI50 [4] was 14.1 µM, the TGI [4] was 31.7 µM and the GI50 [5] was 8.06 µM. For the same molecule, the TGI [5] was 25.5 µM, the GI50 [6] was 13.8 µM and the TGI [6] was 28.2 µM. The GI50 [7] was 2.8 µM, the TGI [7] was 18.6 µM and the GI50 [8] was 3.96 µM. It also gave a TGI [8] of 38.6 µM.
O=[N+]([O-])c1cccc(-c2csc(NNC3=NC/C(=C/c4ccc5c(c4)OCO5)S3)n2)c1 was tested, and the TGI [1] was > 100 µM, the TGI [2] was > 100 µM and the TGI [3] was > 100 µM. For the same molecule, the TGI [4] was 96 µM, the TGI [5] was > 100 µM and the TGI [6] was > 100 µM. The TGI [7] was > 100 µM and the TGI [8] was 48.9 µM.
In the case of Nc1c(C(=O)c2cccc(CCS(N)(=O)=O)c2)cnn1-c1ccc(F)cc1, the GI50 [1] is reported as > 25 µM, the TGI [1] is reported as > 25 µM and the GI50 [2] is reported as > 25 µM. The TGI [2] was > 25 µM, the GI50 [3] was > 20.6 µM and the TGI [3] was > 25 µM. For the same molecule, the GI50 [4] was > 25 µM, the TGI [4] was > 25 µM and the GI50 [5] was > 25 µM. The TGI [5] was > 25 µM, the GI50 [6] was > 25 µM and the TGI [6] was > 25 µM. The GI50 [7] was > 25 µM, the TGI [7] was > 25 µM and the GI50 [8] was > 25 µM. For the same molecule, the TGI [8] was > 25 µM.
With NC(N)=NS(=O)(=O)c1ccc(Nc2c3ccccc3nc3c(C(=O)NCCO)cccc23)cc1 the GI50 [1] was 26.7 µM, the GI50 [2] was 23.3 µM and the GI50 [3] was 11 µM. The GI50 [4] was 26.3 µM, the GI50 [5] was 0.0928 µM and the GI50 [6] was 29.5 µM. The GI50 [7] was 26 µM and the GI50 [8] was 26.3 µM.
Molecule O=C(CCNC12CC3CC(CC(C3)C1)C2)c1ccccc1 has a TGI [1] of 36.3 µM, a TGI [2] of 65.9 µM and a TGI [3] of 55.4 µM. For the same molecule, the TGI [4] was 37.1 µM, the TGI [5] was 26.5 µM and the TGI [6] was 40.3 µM. The TGI [7] was 31.9 µM and the TGI [8] was 48.8 µM.
For COc1cccc(C2c3cc4c(cc3OC(C)(N3CCCC3)C2C)OCO4)c1O (configuration not stated), the TGI [1] was 48.6 µM, the TGI [2] was 3.82 µM and the TGI [3] was > 100 µM. The TGI [4] was 14 µM, the TGI [5] was 25.6 µM and the TGI [6] was 21.8 µM. The TGI [7] was 53.8 µM and the TGI [8] was 8.9 µM.
COc1cnc2c(c1)C(=O)c1c-2n(CCCN2CCOCC2)c(=O)c2cc(F)ccc12 was tested, and the GI50 [1] was 0.32 µM, the TGI [1] was > 100 µM and the GI50 [2] was 0.454 µM. The TGI [2] was > 100 µM, the GI50 [3] was 0.118 µM and the TGI [3] was 0.69 µM. For the same molecule, the GI50 [4] was 0.288 µM, the TGI [4] was > 100 µM and the GI50 [5] was 2.75 µM. For the same molecule, the TGI [5] was > 100 µM, the GI50 [6] was 0.288 µM and the TGI [6] was 1.08 µM. The GI50 [7] was 0.0936 µM, the TGI [7] was 0.563 µM and the GI50 [8] was 0.284 µM. For the same molecule, the TGI [8] was 1.84 µM.
With Cc1ccc(CN2CCC(C(=O)Nc3ccc(-c4cc5ccccc5[nH]4)cc3)CC2)o1 the GI50 [1] was > 100 µM, the TGI [1] was > 100 µM and the GI50 [2] was > 100 µM. For the same molecule, the TGI [2] was > 100 µM, the GI50 [3] was > 100 µM and the TGI [3] was > 100 µM. For the same molecule, the GI50 [4] was 66.1 µM, the TGI [4] was > 100 µM and the GI50 [5] was > 100 µM. The TGI [5] was > 100 µM, the GI50 [6] was > 100 µM and the TGI [6] was > 100 µM. The GI50 [7] was 21 µM, the TGI [7] was > 100 µM and the GI50 [8] was > 100 µM. The TGI [8] was > 100 µM.
COC(=O)CC[N+]1=CCC(c2ccccc2)(c2ccccc2)O1 was tested, and the TGI [1] was > 100 µM, the TGI [2] was > 100 µM and the TGI [3] was > 100 µM. For the same molecule, the TGI [4] was > 100 µM, the TGI [5] was > 100 µM and the TGI [6] was > 100 µM. For the same molecule, the TGI [7] was > 100 µM and the TGI [8] was > 100 µM.
For O=[N+]([O-])c1ccc2c(c1)/C(=N/N=C1c3ccccc3Cc3ccccc31)c1cc([N+](=O)[O-])cc([N+](=O)[O-])c1-2, the TGI [1] was 3.23 µM, the TGI [2] was 3.38 µM and the TGI [3] was 3.49 µM. For the same molecule, the TGI [4] was 6.28 µM, the TGI [5] was 12.8 µM and the TGI [6] was 7.21 µM. For the same molecule, the TGI [7] was 10.7 µM and the TGI [8] was 3.85 µM.
With COc1ccc(CC2c3cc4c(cc3CCN2C)OCO4)c(C=O)c1OC (configuration not stated) the TGI [1] was > 100 µM, the TGI [2] was > 100 µM and the TGI [3] was > 100 µM. For the same molecule, the TGI [4] was > 100 µM, the TGI [5] was > 100 µM and the TGI [6] was > 100 µM. For the same molecule, the TGI [7] was > 100 µM and the TGI [8] was > 100 µM.
